PubChem BioAssay (NCI)
“And” between values parts separate entries of the source, which are not always exact repeats. Equal values may be shown once.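 Interpolation was linear, between the two tested concentrations surrounding the appropriate level; five concentrations were tested over 48 hours in 96-well plates. At the GI50, growth is halved. TGI marks complete inhibition of growth.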

Key:
Experiment in all cases: growth of human tumour cells (NCI), 48 h
NCI/ADR-RES ovarian = test system: NCI/ADR-RES ovarian
SNB-19 CNS = test system: SNB-19 CNS
K-562 leukemia = test system: K-562 leukemia
HL-60(TB) leukemia = test system: HL-60(TB) leukemia
ACHN renal = test system: ACHN renal
A498 renal = test system: A498 renal
M14 melanoma = test system: M14 melanoma
HOP-62 NSCLC = test system: HOP-62 NSCLC
SR leukemia = test system: SR leukemia
COLO 205 colon = test system: COLO 205 colon
786-0 renal = test system: 786-0 renal
DMS 273 small cell lung = test system: DMS 273 small cell lung
KM20L2 colon = test system: KM20L2 colon

SMILES | TGI (NCI/ADR-RES ovarian) | TGI (SNB-19 CNS) | TGI (K-562 leukemia) | TGI (HL-60(TB) leukemia) | TGI (ACHN renal) | TGI (A498 renal) | TGI (M14 melanoma) | TGI (HOP-62 NSCLC) | TGI (SR leukemia) | TGI (COLO 205 colon) | TGI (786-0 renal) | GI50 (NCI/ADR-RES ovarian) | GI50 (SNB-19 CNS) | GI50 (ACHN renal) | TGI (DMS 273 small cell lung) | GI50 (A498 renal) | GI50 (M14 melanoma) | GI50 (HOP-62 NSCLC) | GI50 (KM20L2 colon) | TGI (KM20L2 colon)
COc1ccc(S(=O)(=O)N2C(=O)CCC2C(=O)NC(N)=O)cc1 (stereo unspecified) | > 100 µM | > 100 µM | > 100 µM | > 100 µM | > 100 µM | > 100 µM | > 100 µM | > 100 µM | > 100 µM | > 100 µM | > 100 µM | – | – | – | – | – | – | – | – | –
CC1OC(OC2C(OC(=O)[C@]34CCC(C)(C)C[C@H]3C3=CC[C@@H]5[C@@]6(C)CC[C@H](OC7OC(C(=O)O)C(O)C(O)C7O)C(C)(C)[C@@H]6CC[C@@]5(C)[C@]3(C)C[C@H]4O)OCC(O)C2O)C(O)C(O)C1OC1OCC(O)C(O)C1O (stereo partly specified) | 27.1 µM and 19 µM | 25.8 µM and 23.8 µM | 35.4 µM and 36.3 µM | 30.5 µM and 26.9 µM | 21.5 µM | 6.22 µM and 3.63 µM | 28.1 µM and 21.6 µM | 32.7 µM and 28.3 µM | 23 µM and > 100 µM | 12.3 µM and 3.98 µM | 28.8 µM and 26.1 µM | 13 µM and 5.11 µM | – | – | – | – | – | – | – | –
CSc1nc(-c2ccc(Cl)cc2)c(C#N)c(=O)n1C1OC(COC(C)=O)C(OC(C)=O)C(OC(C)=O)C1OC(C)=O (stereo unspecified) | – | 39.4 µM and > 100 µM | > 100 µM | > 100 µM | > 100 µM | 38.9 µM and > 100 µM | > 100 µM | 57.1 µM and > 100 µM | > 100 µM | > 100 µM | > 100 µM | – | 13.9 µM and > 100 µM | 24 µM and > 100 µM | > 100 µM | 17.6 µM and > 100 µM | 34.7 µM and 88.9 µM | 23.6 µM and > 100 µM | 35 µM and > 100 µM | > 100 µM
CCn1cc2c(=O)n3ncn(-c4ccc(Br)cc4)c3nc2n1 | > 100 µM | > 100 µM | > 100 µM | > 100 µM | > 100 µM | > 100 µM | > 100 µM | > 100 µM | > 100 µM | > 100 µM | > 100 µM | – | – | – | – | – | – | – | – | –
CC1=C(C(=O)OC2CC3CCC2(C)C3(C)C)C2Nc3ccccc3N(C)C2O1 (stereo unspecified) | 12.6 µM | 10.1 µM | > 29.4 µM | 4.97 µM | 11.2 µM | 18.9 µM | 3.22 µM | 16.6 µM | 9.52 µM | 2.4 µM | 9.09 µM | – | – | – | – | – | – | – | – | –
Cc1ccc2c(c1)C(=C(C#N)C#N)CCCS2(=O)=O | > 100 µM | > 100 µM | > 100 µM | > 100 µM | > 100 µM | > 100 µM | > 100 µM | > 100 µM | > 100 µM | > 100 µM | > 100 µM | – | – | – | – | – | – | – | – | –
Oc1c(Br)cc(/C=C/c2ccnc(/C=C/c3cc(Br)c(O)c(Br)c3)c2)cc1Br | 92.6 µM | > 100 µM | 60.1 µM | 60.6 µM | > 100 µM | 54.4 µM | 54.9 µM | > 100 µM | 45.9 µM | 59.9 µM | 35.3 µM | – | – | – | – | – | – | – | – | –
Cc1ccc2c(=O)cc(-c3sccc3C)[nH]c2n1 | 0.693 µM | > 100 µM | > 100 µM | 0.743 µM | > 54.5 µM | > 35 µM | > 34.4 µM | > 100 µM | > 61.1 µM | 1.41 µM | > 67.8 µM | – | – | – | – | – | – | – | – | –
CN1C(=O)C2(C)SC1(c1ccccc1)C1C(=O)N(c3ccccc3)C(=O)C12 (stereo unspecified) | > 100 µM | > 100 µM | > 100 µM | > 100 µM | > 100 µM | > 100 µM | > 100 µM | > 100 µM | > 100 µM | > 100 µM | > 100 µM | – | – | – | – | – | – | – | – | –
COc1ccc(CNc2cnc3cc(N)ccc3n2)cc1 | – | > 100 µM | > 100 µM | > 100 µM | > 100 µM | – | > 100 µM | > 100 µM | > 100 µM | > 100 µM | > 100 µM | – | – | – | > 100 µM | – | – | – | – | > 100 µM
COc1ccc2c(c1)Cc1c(NCCN(C)C)ccc(C(=O)NCCCN(C)CCCNC(=O)c3ccc(NCCN(C)C)c4c3Nc3ccc(OC)cc3C4)c1N2 | > 100 µM | 1.13 µM | 3.14 µM | 1.17 µM | 9.79 µM | 0.833 µM | 1.79 µM | 1.02 µM | 0.502 µM | 0.207 µM | 0.985 µM | – | – | – | – | – | – | – | – | –
CCOc1cc(C2CC(c3ccc(NS(=O)(=O)c4cc([N+](=O)[O-])ccc4C)cc3)=NN2S(=O)(=O)c2cc([N+](=O)[O-])ccc2C)ccc1O (stereo unspecified) | > 100 µM | > 100 µM | > 100 µM | > 100 µM | > 100 µM | 22 µM | > 100 µM | > 100 µM | > 100 µM | > 100 µM | 98.7 µM | – | – | – | – | – | – | – | – | –
CCN1CCC(O)(c2ccc(Oc3ccc(Cl)cc3)cc2)C(C(=O)c2ccc(Oc3ccc(Cl)cc3)cc2)C1 (stereo unspecified) | 39.9 µM | 29.3 µM | > 100 µM | 4.46 µM | 28.2 µM | 23.4 µM | 28.3 µM | 21.3 µM | > 100 µM | 27.4 µM | 12.3 µM | – | – | – | – | – | – | – | – | –
N#CC12C(=O)N3C(=NC(c4ccco4)NC3c3ccco3)C1(C#N)C(c1ccco1)NC1=C2CCCC1 (stereo unspecified) | > 100 µM | > 100 µM | > 100 µM | > 100 µM | > 100 µM | > 100 µM | > 100 µM | > 100 µM | > 100 µM | > 100 µM | > 100 µM | – | – | – | – | – | – | – | – | –
O=c1c2cc(-c3ccccc3)cnc2sn1-c1ccc(Br)cc1 | > 100 µM | > 100 µM | > 100 µM | > 100 µM | > 100 µM | > 100 µM | > 100 µM | > 100 µM | > 100 µM | > 100 µM | > 100 µM | – | – | – | – | – | – | – | – | –
CC1=NN(c2nc(N)nc(CN3CCOCC3)n2)C(C)(C)C1 | > 100 µM | > 100 µM | > 100 µM | 30.1 µM | > 100 µM | > 100 µM | > 100 µM | > 100 µM | > 100 µM | > 100 µM | 31.2 µM | – | – | – | – | – | – | – | – | –
C=CC(=O)Nc1ccc(NC(=O)C=C)c2c1C(=O)c1ccccc1C2=O | > 100 µM | > 100 µM | 48.4 µM | 24.7 µM | > 100 µM | > 100 µM | > 100 µM | > 100 µM | > 100 µM | > 100 µM | 84.6 µM | – | – | – | – | – | – | – | – | –
C=C(C)C12CC3CC(/C(=N/O)C(C1)/C3=N\O)[C@@]2(C)O (stereo partly specified) | – | > 100 µM | > 100 µM | > 100 µM | > 100 µM | – | > 100 µM | > 100 µM | > 100 µM | > 100 µM | > 100 µM | – | – | – | > 100 µM | – | – | – | – | > 100 µM
